Reference: ChEMBL document CHEMBL5543144, “Discovery of a Novel Potent Tetrazole Antifungal Candidate with High Selectivity and Broad Spectrum” (J Med Chem, 2024)
In brackets after ≈: the same amount, converted by molar mass. Activity calls are given as the source filed them. The calls are words filed in the database; no cut-off is given here.

Tests used:
Candida albicans [1] = assay: Antifungal activity against Candida albicans SC5314 assessed as inhibition of fungal growth incubated for 24 hrs by CLSI protocol based microbroth dilution method; format: functional
Candida parapsilosis = assay: Antifungal activity against Candida parapsilosis 22019 assessed as inhibition of fungal growth incubated for 24 hrs by CLSI protocol based microbroth dilution method; format: functional; conditions: Lodderomyces parapsilosis
Candida tropicalis [2] = assay: Antifungal activity against Candida tropicalis 2718 assessed as inhibition of fungal growth incubated for 24 hrs by CLSI protocol based microbroth dilution method; format: functional
Pichia kudriavzevii [3] = assay: Antifungal activity against Candida krusei 4946 assessed as inhibition of fungal growth incubated for 24 hrs by CLSI protocol based microbroth dilution method; format: functional
Nakaseomyces glabratus [4] = assay: Antifungal activity against Candida glabrata 537 assessed as inhibition of fungal growth incubated for 48 hrs by CLSI protocol based microbroth dilution method; format: functional
Cryptococcus neoformans [5] = assay: Antifungal activity against Cryptococcus neoformans H99 assessed as inhibition of fungal growth incubated for 72 hrs by CLSI protocol based microbroth dilution method; format: functional
Aspergillus fumigatus = assay: Antifungal activity against Aspergillus fumigatus 7544 assessed as inhibition of fungal growth incubated for 48 hrs by CLSI protocol based microbroth dilution method; format: functional
[Candida] auris [6] = Antifungal activity against fluconazole resistant Candida auris 887 assessed as inhibition of fungal growth incubated for 48 hrs by CLSI protocol based microbroth dilution method; format: functional; conditions: Candidozyma auris
[Candida] auris [7] = Antifungal activity against fluconazole resistant Candida auris 888 assessed as inhibition of fungal growth incubated for 48 hrs by CLSI protocol based microbroth dilution method; format: functional; conditions: Candidozyma auris
[Candida] auris [8] = Antifungal activity against fluconazole resistant Candida auris D12 assessed as inhibition of fungal growth incubated for 48 hrs by CLSI protocol based microbroth dilution method; format: functional; conditions: Candidozyma auris
[Candida] auris [9] = Antifungal activity against fluconazole resistant Candida auris BS12372 assessed as inhibition of fungal growth incubated for 48 hrs by CLSI protocol based microbroth dilution method; format: functional; conditions: Candidozyma auris
[Candida] auris [10] = Antifungal activity against fluconazole resistant Candida auris 789 assessed as inhibition of fungal growth incubated for 48 hrs by CLSI protocol based microbroth dilution method; format: functional; conditions: Candidozyma auris
[Candida] auris [11] = Antifungal activity against fluconazole resistant Candida auris 791 assessed as inhibition of fungal growth incubated for 48 hrs by CLSI protocol based microbroth dilution method; format: functional; conditions: Candidozyma auris
Candida albicans [12] = assay: Antifungal activity against Candida albicans SC5314 assessed as inhibition of fungal growth at 0.0156 ug/ml incubated for 24 hrs by plate reader analysis; format: functional, organism-based; conditions: dose 0.0156 µg/ml
Cryptococcus neoformans [13] = assay: Antifungal activity against Cryptococcus neoformans H99 assessed as inhibition of fungal growth at 0.125 ug/ml incubated for 48 hrs by plate reader analysis; format: functional, organism-based; conditions: dose 0.125 µg/ml
Nakaseomyces glabratus [14] = assay: Antifungal activity against Candida glabrata 537 assessed as inhibition of fungal growth at 0.25 ug/ml incubated for 24 hrs by plate reader analysis; format: functional, organism-based; conditions: dose 0.25 µg/ml
Pichia kudriavzevii [15] = assay: Antifungal activity against Candida krusei 4946 assessed as inhibition of fungal growth at 0.125 ug/ml incubated for 24 hrs by plate reader analysis; format: functional, organism-based; conditions: dose 0.125 µg/ml
Candida tropicalis [16] = assay: Antifungal activity against Candida tropicalis 2718 assessed as inhibition of fungal growth at 32 ug/ml incubated for 24 hrs by plate reader analysis; format: functional, organism-based; conditions: dose 32.0 µg/ml
Candida albicans [17] = assay: Inhibition of biofilm formation in Candida albicans SC5314 incubated for 24 hrs by XTT reduction assay; format: functional, organism-based; conditions: dose 0.008-4 µg/ml
Candida albicans [18] = assay: Inhibition of biofilm formation in Candida albicans SC5314 at 0.008 ug/ml incubated for 24 hrs by XTT reduction assay relative to control; format: functional
[19] = Half-life in male ICR (CD-1) mouse at 5 mg/kg, iv by LC-MS/MS analysis; format: ADME, organism-based; conditions: in vivo
[20] = AUC (0 to t) in male ICR (CD-1) mouse at 5 mg/kg, iv by LC-MS/MS analysis; format: ADME, organism-based; conditions: in vivo
[21] = Clearance in male ICR (CD-1) mouse at 5 mg/kg, iv by LC-MS/MS analysis; format: ADME, organism-based; conditions: in vivo
[22] = MRT (0 to t) in male ICR (CD-1) mouse at 5 mg/kg, iv by LC-MS/MS analysis; format: ADME, organism-based; conditions: in vivo
[23] = Volume of distribution at steady state in male ICR (CD-1) mouse at 5 mg/kg, iv by LC-MS/MS analysis; format: ADME, organism-based; conditions: in vivo, read-out: Vdss
[24] = Cmax in male ICR (CD-1) mouse at 10 mg/kg, po by LC-MS/MS analysis; format: ADME, organism-based; conditions: in vivo
[25] = Tmax in male ICR (CD-1) mouse at 10 mg/kg, po by LC-MS/MS analysis; format: ADME, organism-based; conditions: in vivo
[26] = Half-life in male ICR (CD-1) mouse at 10 mg/kg, po by LC-MS/MS analysis; format: ADME, organism-based; conditions: in vivo
[27] = AUC (0 to t) in male ICR (CD-1) mouse at 10 mg/kg, po by LC-MS/MS analysis; format: ADME, organism-based; conditions: in vivo
[28] = MRT (0 to t) in male ICR (CD-1) mouse at 10 mg/kg, po by LC-MS/MS analysis; format: ADME, organism-based; conditions: in vivo
[29] = Oral bioavailability in male ICR (CD-1) mouse at 10 mg/kg by LC-MS//MS analysis; format: ADME, organism-based; conditions: in vivo
Candida albicans [30] = assay: Antifungal activity against Candida albicans SC5314 infected in ICR mouse model assessed as fungal burden in kidney at 1 mg/kg/day, po pre-infected with fungi for 2 hrs followed by compound administration and measured after 48 hrs (reference value: 3.89 Log10CFU/g); format: functional
Candida albicans [31] = assay: Antifungal activity against Candida albicans SC5314 infected in ICR mouse model assessed as fungal burden in kidney at 5 mg/kg/day, po pre-infected with fungi for 2 hrs followed by compound administration and measured after 48 hrs (reference value: 3.89 Log10CFU/g); format: functional
Candida albicans [32] = assay: Antifungal activity against Candida albicans SC5314 infected in ICR mouse model assessed as reduction in fungal burden in kidney pre-infected with fungi for 2 hrs followed by oral administration of compound and measured after 48 hrs; format: functional, organism-based; conditions: dose 1-5 mg/kg/day
Candida albicans [33] = assay: Antifungal activity against Candida albicans SC5314 infected in ICR mouse model assessed as median survival time at 1 mg/kg/day, po pre-infected with fungi for 2 hrs followed by compound administration and measured after 48 hrs (reference value: 3.5 days); format: functional
Candida albicans [34] = assay: Antifungal activity against Candida albicans SC5314 infected in ICR mouse model assessed as median survival time at 5 mg/kg/day, po pre-infected with fungi for 2 hrs followed by compound administration and measured after 48 hrs (reference value: 3.5 days); format: functional
Erythrocyte = assay: Hemolytic activity in rabbit RBC assessed as hemolysis at 64 ug/ml incubated for 1 hrs by absorbance based assay; format: toxicity, cell-based, Oryctolagus cuniculus; conditions: dose 64 µg/ml
[35] = molecular target: T1, Lanosterol 14-alpha demethylase (Candida albicans (strain SC5314 / ATCC MYA-2876) (Yeast), UniProt P10613); assay: Inhibition of CYP51 in Candida albicans SC5314 assessed as decrease in ergosterol level at 0.008 ug/ml incubated for 8 hrs by GC-MS analysis; conditions: at 0.008 µg/mL
T1 sequence (P10613 whole entry): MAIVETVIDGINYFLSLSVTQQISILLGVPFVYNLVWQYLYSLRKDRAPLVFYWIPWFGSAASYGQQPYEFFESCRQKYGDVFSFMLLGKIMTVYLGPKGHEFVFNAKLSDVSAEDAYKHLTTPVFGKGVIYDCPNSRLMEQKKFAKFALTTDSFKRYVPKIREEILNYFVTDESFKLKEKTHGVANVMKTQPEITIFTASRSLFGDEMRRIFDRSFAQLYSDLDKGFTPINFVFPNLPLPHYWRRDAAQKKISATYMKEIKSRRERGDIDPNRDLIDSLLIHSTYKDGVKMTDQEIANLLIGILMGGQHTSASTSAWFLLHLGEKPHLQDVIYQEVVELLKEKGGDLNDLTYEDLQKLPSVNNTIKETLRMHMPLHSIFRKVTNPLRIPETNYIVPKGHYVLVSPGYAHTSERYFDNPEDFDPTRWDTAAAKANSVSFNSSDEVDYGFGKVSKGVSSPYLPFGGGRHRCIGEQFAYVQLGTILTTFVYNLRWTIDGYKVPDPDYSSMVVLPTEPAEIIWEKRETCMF

[36] = molecular target: T1, Lanosterol 14-alpha demethylase; assay: Inhibition of CYP51 in Candida albicans SC5314 assessed as increase in obtusifoliol level at 0.008 ug/ml incubated for 8 hrs by GC-MS analysis relative to control; parameters: scale not given: the % may be the effect or the level left; conditions: at 0.008 µg/mL
[37] = molecular target: T1, Lanosterol 14-alpha demethylase; assay: Inhibition of CYP51 in Candida albicans SC5314 assessed as increase in eburicol level at 0.008 ug/ml incubated for 8 hrs by GC-MS analysis relative to control; parameters: scale not given: the % may be the effect or the level left; conditions: at 0.008 µg/mL
Cell membrane = assay: Disruption of cell membrane integrity in Candida albicans SC5314 assessed as increase in increase in red fluorescence at 0.5 ug/ml incubated for 8 hrs by PI staining based fluorescence microscopic analysis; conditions: dose 0.5 µg/ml
Candida albicans [38] = assay: Antifungal activity in Candida albicans SC5314 assessed as inhibition of fungal growth incubated for 4 days by induction of resistance assay; format: functional; conditions: SC5314, 96 h, time 4 day
Candida albicans [39] = assay: Antifungal activity in Candida albicans SC5314 assessed as inhibition of fungal growth incubated for 17 days by induction of resistance assay; format: functional; conditions: SC5314, 408 h, time 17 day

C[C@@H](n1ccc2cc(Cl)ccc2c1=O)[C@](O)(Cn1cnnn1)c1ccc(F)cc1F
MIC50 (Candida albicans [1]): < 8 ng/mL | MIC50 (Candida parapsilosis): < 8 ng/mL | MIC50 (Candida tropicalis [2]): < 8 ng/mL | MIC50 (Pichia kudriavzevii [3]): 0.031 µg/mL (≈ 0.0718 µM) | MIC50 (Nakaseomyces glabratus [4]): < 8 ng/mL | MIC50 (Cryptococcus neoformans [5]): < 8 ng/mL | MIC50 (Aspergillus fumigatus): 2 µg/mL (≈ 4.63 µM) | MIC50 ([Candida] auris [6]): 0.5 µg/mL (≈ 1.16 µM) | MIC50 ([Candida] auris [7]): 0.25 µg/mL (≈ 0.579 µM) | MIC50 ([Candida] auris [8]): < 0.125 µg/mL | MIC50 ([Candida] auris [9]): < 0.125 µg/mL | MIC50 ([Candida] auris [10]): 0.5 µg/mL (≈ 1.16 µM) | MIC50 ([Candida] auris [11]): 1 µg/mL (≈ 2.32 µM) | Activity (Candida albicans [12]): Active | Activity (Cryptococcus neoformans [13]): Active | Activity (Nakaseomyces glabratus [14]): Active | Activity (Pichia kudriavzevii [15]): Active | Activity (Candida tropicalis [16]): Active | inhibition (Candida albicans [17]): Dose-Dependent Effect | inhibition at 0.008 µg/mL (Candida albicans [18]): > 70% | half-life [19]: 257 min | AUC(0-t) [20]: 18500 ng·h/mL | clearance [21]: 3.27 mL/min/kg | MRT last [22]: 3.27 h | Vd [23]: 1.23 L/kg | Cmax [24]: 2630 ng/mL | Tmax [25]: 2 h | half-life [26]: 403 min | AUC(0-t) [27]: 13600 ng·h/mL | MRT last [28]: 3.66 h | bioavailability [29]: 36.8% | Activity (Candida albicans [30]): 2.92 log10CFU/g | Activity (Candida albicans [31]): 2.25 log10CFU/g | Activity (Candida albicans [32]): Dose-Dependent Effect | MST (Candida albicans [33]): 8.5 days | MST (Candida albicans [34]): 10 days | Activity (Erythrocyte): Non-Toxic | inhibition (INH) [35]: Active | Activity [36]: 19.33% | Activity [37]: 24.85% | Activity (Cell membrane): Active | MIC (Candida albicans [38]): 0.016 µg/mL (≈ 0.0371 µM) | MIC (Candida albicans [39]): 0.125 µg/mL (≈ 0.289 µM)
